Laboratory results taken from US8426442B2, “Compounds” (Xention Ltd, priority 2009, dated 2013).

Legend:
hKv1.3 = hKv1.3 (Homo sapiens, UniProt P22001); test: hKv1.3 % inhibition; type: cell-based; settings: for inhibition at 1 µM: read-out: hKv1.3 % inh. 1 uM
hKv1.5 = hKv1.5 (Homo sapiens, UniProt P22460); test: hKv1.5 % inhibition; type: cell-based; settings: for inhibition at 0.3 µM: read-out: hKv1.5 % inh. 300 nM
Sequence of hKv1.5 (P22460 whole entry): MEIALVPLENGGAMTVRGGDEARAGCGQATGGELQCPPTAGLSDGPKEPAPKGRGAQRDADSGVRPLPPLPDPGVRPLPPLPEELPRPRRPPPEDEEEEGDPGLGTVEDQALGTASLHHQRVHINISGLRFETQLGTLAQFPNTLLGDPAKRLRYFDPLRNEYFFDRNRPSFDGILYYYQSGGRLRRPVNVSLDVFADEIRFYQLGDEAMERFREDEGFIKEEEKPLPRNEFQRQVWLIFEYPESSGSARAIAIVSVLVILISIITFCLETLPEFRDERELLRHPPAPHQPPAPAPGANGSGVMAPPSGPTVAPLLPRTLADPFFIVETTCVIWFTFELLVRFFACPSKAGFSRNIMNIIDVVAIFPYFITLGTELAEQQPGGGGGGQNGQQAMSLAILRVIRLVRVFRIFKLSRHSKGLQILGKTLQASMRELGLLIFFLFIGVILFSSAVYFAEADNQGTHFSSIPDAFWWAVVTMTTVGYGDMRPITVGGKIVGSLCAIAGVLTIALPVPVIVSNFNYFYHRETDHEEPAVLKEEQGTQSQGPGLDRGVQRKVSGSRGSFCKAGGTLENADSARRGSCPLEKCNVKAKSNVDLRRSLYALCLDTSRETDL

Sequence of hKv1.3 (P22001 whole entry): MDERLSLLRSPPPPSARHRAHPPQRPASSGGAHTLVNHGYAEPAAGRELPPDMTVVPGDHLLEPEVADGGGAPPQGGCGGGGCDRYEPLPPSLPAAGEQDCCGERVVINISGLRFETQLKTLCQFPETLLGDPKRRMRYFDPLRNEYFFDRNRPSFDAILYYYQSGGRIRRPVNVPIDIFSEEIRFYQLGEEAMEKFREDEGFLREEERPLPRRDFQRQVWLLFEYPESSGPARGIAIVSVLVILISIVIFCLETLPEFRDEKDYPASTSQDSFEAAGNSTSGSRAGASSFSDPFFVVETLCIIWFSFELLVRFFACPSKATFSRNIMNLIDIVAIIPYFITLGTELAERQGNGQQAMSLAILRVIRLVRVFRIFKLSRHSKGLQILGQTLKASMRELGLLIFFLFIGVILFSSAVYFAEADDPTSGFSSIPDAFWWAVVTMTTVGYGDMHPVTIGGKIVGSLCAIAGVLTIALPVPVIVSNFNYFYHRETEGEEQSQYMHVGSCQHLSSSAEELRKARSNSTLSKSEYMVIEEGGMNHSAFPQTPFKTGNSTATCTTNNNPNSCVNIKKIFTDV

| Compound | hKv1.3 % inh. 1 uM (hKv1.3) [%] | hKv1.5 % inh. 300 nM (hKv1.5) [%] | inhibition at 0.3 µM (hKv1.5) [%] | inhibition at 1 µM (hKv1.3) [%] |
| --- | --- | --- | --- | --- |
| 1-Methyl-1H-pyrazole-3-sulfonic acid (4-chloro-benzyl)-[1-(3-methoxy-propionyl)-2,3-dihydro-1H-indol-6-yl]-amide [Example 2] | 99.1 |  |  |  |
| 1-Methyl-1H-pyrazole-3-sulfonic acid benzyl-[2-(2-cyano-acetyl)-1,2,3,4-tetrahydro-isoquinolin-6-yl]-amide [Example 9] | 71.6 | 27.6 |  |  |
| 1-Methyl-1H-pyrazole-3-sulfonic acid benzyl-[2-(2-methoxy-acetyl)-1,2,3,4-tetrahydro-isoquinolin-6-yl]-amide [Example 18] | 51.1 | 34.6 |  |  |
| 1-Methyl-1H-pyrazole-3-sulfonic acid benzyl-[2-(3-methoxy-propionyl)-1,2,3,4-tetrahydro-isoquinolin-6-yl]-amide [Example 12] | 64.3 | 41.7 |  |  |
| 1-Methyl-1H-pyrazole-3-sulfonic acid benzyl-[2-(pyridine-2-carbonyl)-1,2,3,4-tetrahydro-isoquinolin-6-yl]-amide [Example 17] | 54.8 | 36.7 |  |  |
| COCC(=O)N1CCc2ccc(N(Cc3ccc(Cl)cc3)S(=O)(=O)c3ccn(C)n3)cc21 [Example 1, 1-Methyl-1H-pyrazole-3-sulfonic acid (4-chloro-benzyl)-[1-(2-methoxy-acetyl)-2,3-dihydro-1H-indol-6-yl]-amide] |  |  | 92.1 | 100 |
| CC(=O)N1CCc2ccc(N(Cc3ccc(Cl)cc3)S(=O)(=O)c3ccn(C)n3)cc21 [Example 3, 1-Methyl-1H-pyrazole-3-sulfonic acid (1-acetyl-2,3-dihydro-1H-indol-6-yl)-(4-chloro-benzyl)-amide] |  |  | 89.5 | 98 |
| CC(=O)N1CCc2cc(N(Cc3ccc(Cl)cc3)S(=O)(=O)c3ccn(C)n3)ccc21 [Example 4, 1-Methyl-1H-pyrazole-3-sulfonic acid (1-acetyl-2,3-dihydro-1H-indol-5-yl)-(4-chloro-benzyl)-amide] |  |  | 86.1 | 91.3 |
| COCCC(=O)N1CCc2cc(N(Cc3ccc(Cl)cc3)S(=O)(=O)c3ccn(C)n3)ccc21 [Example 5, 1-Methyl-1H-pyrazole-3-sulfonic acid (4-chloro-benzyl)-[1-(3-methoxy-propionyl)-2,3-dihydro-1H-indol-5-yl]-amide] |  |  | 65.2 | 90.7 |
| Cn1cnc(S(=O)(=O)N(Cc2ccc(Cl)cc2)c2ccc3c(c2)NCC3)c1 [Example 6, 1-Methyl-1H-imidazole-4-sulfonic acid (4-chloro-benzyl)-(2,3-dihydro-1H-indol-6-yl)-amide] |  |  | 37.1 | 85.4 |
| Cn1ccc(S(=O)(=O)N(Cc2ccc(Cl)cc2)c2ccc3c(c2)CCN3C(=O)CC#N)n1 [Example 7, 1-Methyl-1H-pyrazole-3-sulfonic acid (4-chloro-benzyl)-[1-(2-cyano-acetyl)-2,3-dihydro-1H-indol-5-yl]-amide] |  |  | 48.3 | 77.2 |
| CC(=O)N1CCc2cc(N(Cc3ccc(Cl)cc3)S(=O)(=O)c3cn(C)cn3)ccc2C1 [Example 8, 1-Methyl-1H-imidazole-4-sulfonic acid(2-acetyl-1,2,3,4-tetrahydro-isoquinolin-6-yl)-(4-chlorobenzyl)-amide] | 73.3 | 25.2 |  |  |
| CC(=O)N1CCc2cc(N(Cc3ccccc3)S(=O)(=O)c3ccn(C)n3)ccc2C1 [Example 10, 1-Methyl-1H-pyrazole-3-sulfonic acid (2-acetyl-1,2,3,4-tetrahydro-isoquinolin-6-yl)-benzyl-amide] |  |  | 37.5 | 67.2 |
| COCCC(=O)N1CCc2ccc(N(Cc3ccc(Cl)cc3)S(=O)(=O)c3cn(C)cn3)cc21 [Example 11, 1-Methyl-1H-imidazole-4-sulfonic acid (4-chloro-benzyl)-[1-(3-methoxy-propionyl)-2,3-dihydro-1H-indol-6-yl]-amide] |  |  | 20.9 | 65.6 |
| COCC(=O)N1CCc2cc(N(Cc3ccc(Cl)cc3)S(=O)(=O)c3ccn(C)n3)ccc21 [Example 13, 1-Methyl-1H-pyrazole-3-sulfonic acid (4-chloro-benzyl)-[1-(2-methoxy-acetyl)-2,3-dihydro-1H-indol-5-yl]-amide] |  |  | 66.6 | 64.2 |
| COCC(=O)N1CCc2cc(N(Cc3ccc(Cl)cc3)S(=O)(=O)c3cn(C)cn3)ccc2C1 [Example 14, 1-Methyl-1H-imidazole-4-sulfonic acid (4-chloro-benzyl)-[2-(2-methoxy-acetyl)-1,2,3,4-tetrahydro-isoquinolin-6-yl]-amide] |  |  | 32.1 | 62.7 |
| Cn1cnc(S(=O)(=O)N(Cc2ccc(Cl)cc2)c2ccc3c(c2)CCN3)c1 [Example 15, 1-Methyl-1H-imidazole-4-sulfonic acid (4-chloro-benzyl)-(2,3-dihydro-1H-indol-5-yl)-amide] |  |  | 20.5 | 61.1 |
| COCCC(=O)N1CCc2cc(N(Cc3ccc(Cl)cc3)S(=O)(=O)c3cn(C)cn3)ccc2C1 [Example 16, 1-Methyl-1H-imidazole-4-sulfonic acid (4-chloro-benzyl)-[2-(3-methoxy-propionyl)-1,2,3,4-tetrahydro-isoquinolin-6-yl]-amide] |  |  | 32.2 | 57.5 |
| Cn1cnc(S(=O)(=O)N(Cc2ccc(Cl)cc2)c2ccc3c(c2)CCN(C(=O)CO)C3)c1 [Example 19, 1-Methyl-1H-imidazole-4-sulfonic acid (4-chloro-benzyl)-[2-(2-hydroxy-acetyl)-1,2,3,4-tetrahydro-isoquinolin-6-yl]-amide] |  |  | 16.2 | 49.5 |
| Cn1cnc(S(=O)(=O)N(Cc2ccc(Cl)cc2)c2ccc3c(c2)CCN(C(=O)CC#N)C3)c1 [Example 20, 1-Methyl-1H-imidazole-4-sulfonic acid (4-chloro-benzyl)-[2-(2-cyano-acetyl)-1,2,3,4-tetrahydro-isoquinolin-6-yl]-amide] |  |  | 13.4 | 48.5 |
